Results on two compounds are retold here after US20170172945A1, “METHODS OF TREATING BREAST CANCER” (Mitchell Woods Pharmaceuticals, Inc., priority 2014, published 2017).

What all share (type): cell-based, Human
Test [1] relates to Cyclin D1. Nature of the test: expression of Cyclin D1 in MCF-7 cells. The procedure:
(§1) Cells were lysed with RIPA buffer containing EGTA and EDTA (Boston BioProducts, Ashland, Mass.). The lysis buffer was mixed with a protease inhibitor cocktail (Sigma-Aldrich). Protein concentrations were measured using the bicinchoninic acid reagent (Thermo-Pierce Biotechnology, Inc., Rockford, Ill.). Proteins (20 μg/well) were separated on 4-12% precast gels (Invitrogen, Carlsbad, Calif.) using SDS-polyacrylamide gel electrophoresis under reducing conditions and were electrophoretically transferred onto polyvinylidene fluoride membrane (Invitrogen). Western blots were performed according to standard methods. The visualization of immunoreactive bands was performed using the ECL Plus Western Blotting Detection System (GE Healthcare, NJ) and their quantification was done by volume densitometry using Image J software and normalization to β-actin. The primary antibody for β2-APv was obtained from Enzo Life Sciences, Inc. (Cat. # AD 1-905-742-100, Farmingdale, N.Y.); rabbit anti-phospho-Akt (Ser-473), phospho-ERK1/2, total Akt and total ERK2 were from Cell Signaling Technology (Beverly, Mass.), and anti-P-actin was from Abeam (Cambridge, Mass.). The antibodies were used at a dilution recommended by the manufacturer.
(§2) The effect of MNF on expression of the cell cycle regulatory proteins Cyclin D1 and Cyclin B1 in MCF-7 cells and MDA-MB-231 cells was evaluated. […]

For test [2], the system named is ERK. The experiment in a line: basal phosphorylation levels of ERK in MCF-7 cells. Conditions: serum starved for 3 hours, compound for 15 minutes. The procedure:
(§3) Levels of ERK1/2 and its phosphorylated forms were determined using PathScan ELISA kits according to manufacturer's protocol (Perkin Elmer Alphascreen Surefire ERK1/2 assay kit, cat no. TGRES500).
(§4) (R,R′)-MNF decreased basal phosphorylation levels of ERK. MCF-7 and MDA-MB-231 cells were serum starved for 3 hours and subjected to compound of interest or vehicle for 15 minutes. The levels of phosphorylated ERK were determined in MNF-treated MCF-7 and MDA-MB-231 cells.

Test [3] concerns Cyclin D1. Nature of the test: expression of Cyclin D1 in MDA-MB-231 cells. The procedure:
as §1, §2

The subject of test [4] is ERK. The experiment in a line: basal phosphorylation levels of ERK in MDA-MB-231 cells. Conditions: serum starved for 3 hours, compound for 15 minutes. The procedure: as §3, §4
For test [5], the system named is MCF-7 cells. Nature of the test: [3H]-thymidine incorporation assay in MCF-7 cells. Conditions: serum-starved, 24 hours. The procedure: (§5) Cells were seeded in 12-well plates at approximately 50,000 cells/well and incubated at 37° C. After 24 hours, the wells were rinsed with PBS and replaced with serum-free medium containing the appropriate concentration of the test compounds. After another 24-hour incubation at 37° C., 1 μCi of [^3H]-thymidine was added to each well and incubated at 37° C. for 16 hours. […] The lysate was then mixed with 3 mL of liquid scintillation cocktail (Beckman Coulter, Inc., Brea, Calif.), and radioactivity was measured by liquid scintillation counting using Beckman Coulter LS6000IC Scintillation Counter. Data are shown as CPM incorporated compared to the control cells.
(§6) CF-7 cells and MDA-MB-231 cells were seeded out on E-Plates and allowed to settle. Cells were stimulated with MNF. Cellular proliferation and adherence was measured every 15 minutes using xCELLigence RTCA station. The serum-starved cells were incubated with various amounts of (R,R′)-MNF concentrations for 24 hours and the levels of [3H]thymidine incorporation were measured.

The test system of test [6] is MCF-7 cells. The experiment in a line: proliferation of MCF-7 cells (xCELLigence RTCA). The procedure: (§7) CF-7 cells and MDA-MB-231 cells were seeded out on E-Plates and allowed to settle. Cells were stimulated with MNF. Cellular proliferation and adherence was measured every 15 minutes using xCELLigence RTCA station. The serum-starved cells were incubated with various amounts of (R,R′)-MNF concentrations for 24 hours and the levels of [3H]thymidine incorporation were measured. MNF inhibited the incorporation of radiolabelled thymidine in both CF-7 cells and MDA-MB-231 cells.

In the next test the test system is Cyclin B1. The experiment in a line: expression of Cyclin B1 in MCF-7 cells. The procedure: as §1, §2
For test [7], the system named is MCF-7 cells. The experiment in a line: cell cycle analysis in MCF-7 cells. The procedure: (§8) Cell cycle distributions were performed by flow cytometry on propidium iodide-stained nuclei prepared by the NEVI technique. DNA histograms of at least 10,000 cells acquired on a Becton-Dickinson FACScanto II (BD Biosciences, San Jose, Calif.) were deconvoluted using the Multicycle program (Phoenix Flow Systems) for estimates of the percentage of cells in the G0/1, S, and G2+M phases of the cell cycle. Debris and doublets were removed from the analysis by software algorithms.

Test [8] deals with Multidrug resistance protein (Mdr). The experiment in a line: expression of Multidrug resistance protein (Mdr) in MCF-7 cells. From the text: As shown therein, MNF reduces the expression of Multidrug resistance protein (Mdr) in MCF-7 cells.
Test [9] concerns MDA-MB-231 cells. The experiment in a line: proliferation of MDA-MB-231 cells (xCELLigence RTCA). The procedure:
as §7

For test [10], the system named is MDA-MB-231 cells. Nature of the test: [3H]-thymidine incorporation assay in MDA-MB-231 cells. Conditions: serum-starved, 24 hours. The procedure:
as §5, §6
(In general: Dividing cells build labelled thymidine or BrdU into new DNA.)

Test [11] concerns MDA-MB-231 cells. Nature of the test: cell cycle analysis in MDA-MB-231 cells. The procedure: as §8

As to `COc1ccc(C[C@@H](C)NC[C@H](O)c2cc(O)cc(O)c2)c2ccccc12` [MNF, (R,R′)-4′-methoxy-1-naphthylfenoterol], the “expression of Cyclin D1” value is listed as “unchanged” in the test on Cyclin D1 [1] and “reduced” with Cyclin D1 [3]. Further, the “basal phosphorylation levels of ERK” value in the test with ERK [2] and in the test with ERK [4] was “decreased” each time. Moreover, the “levels of [3H]thymidine incorporation” value in the test with MCF-7 cells [5] and in the test with MDA-MB-231 cells [10] was “inhibited” throughout. The “growth of cancer cells” value in the test on MCF-7 cells [6] and in the test on MDA-MB-231 cells [9] (MDA-MB-231 cells) was “inhibit” in each case. Besides, the proliferation result in the test with MCF-7 cells [6] and in the test with MDA-MB-231 cells [9] (MDA-MB-231 cells) was “inhibit” throughout. The “expression of Cyclin B1” value with Cyclin B1 is “reduced”. For the same compound, the “arrest of the cell cycle” value was “G2/M phase arrested cell population was increased” in the test on MCF-7 cells [7] and “arrested at G1/S phase” in the test on MDA-MB-231 cells [11]. Moreover, in test [8], the “expression of Multidrug resistance protein (Mdr)” value was “reduces”. The “sensitivity to MNF compared with MCF-7 cancer cells” value in the test on MDA-MB-231 cells [9] (MDA-MB-231 cells vs MCF-7 cells) was “significantly more sensitive”.

Consider `Cc1ccc(OCC(O)C(C)NC(C)C)c2c1CCC2` (centres unmarked) [ICI 118,551, 3-(isopropylamino)-1-[(7-methyl-4-indanyl)oxy]butan-2-ol, reference compound], for which the “blocking of the inhibitory effect of MNF on [3H]thymidine incorporation” value with MCF-7 cells [5] (with MNF) and in the test with MDA-MB-231 cells [10] (with MNF) was “not” throughout.
